Measured values: patent US20250101063A1, “POLYPEPTIDE COMPOUND AND USE THEREOF IN TREATMENT OF ENTERITIS” (Sichuan Gooddoctor Panxi Pharmaceutical Co., Ltd., priority 2022, published 2025)
Entries after “also recorded” stand apart in the source; their conditions may differ. Where no end group is shown, it is not given here.

Tests used:
[1] = tested on: zebrafish model of intestinal mucosal injury; experiment: Efficacy in relieving colitis: intestinal lumen area in TNBS-treated zebrafish; format: in vivo; conditions: for Intestinal lumen area (pixels, mean ± SE): 2 days after TNBS, n = 10; for Activity in relieving intestinal lumen dilatation: 1000 μg/mL, significance vs model control group of the same batch; for Intestinal lumen area compared with the model control group (in words): 250, 500, 1000 μg/mL, Table 4
Protocol: Experimental animals: Wild-type AB strain zebrafishes, bred by natural pair mating. Zebrafishes aged 3 days post fertilization (3 dpf). Zebrafishes were kept in fish farming water at 28° C. (water quality: 200 mg of instant sea salt in each 1L of reverse osmosis water, with the conductivity of 450-550 μS/cm; pH of 6.5-8.5; and hardness of 50-100 mg/L CaCO3), the experimental animal use license number is: SYXK (Zhe) 2012-0171, and the breeding management met the requirements of the international AAALAC certification (certification number: 001458).
(1) Grouping: Polypeptide group: prepared into a stock solution of 20.0 mg/mL with ultrapure water and stored at −20° C.
Positive control group: prednisone, as white powder, with batch number C10016501, Shanghai Macklin Biochemical Technology Co., Ltd., stored at 4° C.; prepared into a 15.0 mg/mL stock solution with DMSO, and stored in aliquots at −20° C.
Normal control group and model control group.
(2) Experimental method: 3 dpf wild-type AB strain zebrafishes were randomly selected and placed in a 6-well plate, with 30 zebrafishes in each well (experimental group). Except for the normal control group, all other experimental groups were given TNBS in water to establish the zebrafish model of intestinal mucosal injury. After 2 days of treatment at 28° C., TNBS was removed, and polypeptide compound in water (at concentrations shown in Table 4) was given respectively, and for the positive control, prednisone was 15.0 μg/mL. A normal control group (healthy group) and a model control group (intestinal mucosal injury group) were set up at the same time. The capacity of each well (experimental group) was 3 mL. After 2 days of treatment at 28° C., 10 zebrafishes were randomly selected from each experimental group and photographed under a dissecting microscope. NIS-Elements D 3.20 advanced image processing software was used to analyze and collect data, and the intestinal lumen area of the zebrafish was analyzed. The statistical analysis results of this indicator were used to evaluate the efficacy of the samples in relieving colitis. The statistics results were expressed as mean±SE. SPSS26.0 software was used for statistical analysis, and p<0.05 indicates statistically significant difference.
The concentration gradient of the test substances set in this experimental system was 250 μg/mL, 500 μg/mL, and 1000 μg/mL. […] When the concentration of the test substance was further increased for intervention, the death phenomenon of zebrafishes was found in the group; therefore, in the subsequent rounds of activity evaluation, each test polypeptide compound was uniformly administered at 1000 μg/mL for intervention.

[2] = tested on: TNBS-induced model of acute inflammatory bowel disease (UC) in SD rat; experiment: TNBS-induced model of acute inflammatory bowel disease (UC) in SD rat; format: in vivo; conditions: for Body weight, Grouping day (D 0, g): D 0, before treatment; for Body weight, Grouping day (D 0, g) / DAI score, Experimental day 1 (D 1, point) / DAI score, Experimental day 3 (D 3, point) / Body weight, Experimental day 5 (D 5, g): enema once a day; for Body weight, Grouping day (D 0, g) / DAI score AUC(0-14 d) (D 0-D 14) / Weight change range (D 0-D 14, %) / DAI score, Experimental day 1 (D 1, point) / DAI score, Experimental day 3 (D 3, point) / Body weight, Experimental day 5 (D 5, g) / Body weight, Experimental endpoint (D 14, g) / DAI score, Experimental endpoint (D 14, point) / Colon length (cm) / Colon ulcer and inflammation score (point) / Colon ulcer area (cm^2) / Colon weight / Colon weight/length ratio (100* g/cm) / Colonic adhesion score (point): mean ± SD; for DAI score AUC(0-14 d) (D 0-D 14) / Weight change range (D 0-D 14, %) / Body weight, Experimental endpoint (D 14, g) / DAI score, Experimental endpoint (D 14, point) / Colon length (cm) / Colon ulcer and inflammation score (point) / Colon ulcer area (cm^2) / Colon weight / Colon weight/length ratio (100* g/cm) / Colonic adhesion score (point) / Effect on disease progression of ulcerative colitis / DAI scores (in words) / Effect on weight gain inhibition / weight loss response of model animals (in words): enema once a day 14 days; for Colon length (cm) / Colon ulcer and inflammation score (point) / Colon ulcer area (cm^2) / Colon weight / Colon weight/length ratio (100* g/cm) / Colonic adhesion score (point) / Effect on colon atrophy process / colon weight/length ratio (in words) / Effect on gross colon injury status (colonic adhesion, ulcer and inflammation) and colon ulcer area (in words): experimental endpoint; for Overall therapeutic effect in the rat model of ulcerative colitis (in words) / Effect on disease progression of ulcerative colitis / DAI scores (in words) / Effect on weight gain inhibition / weight loss response of model animals (in words) / Effect on colon atrophy process / colon weight/length ratio (in words) / Effect on gross colon injury status (colonic adhesion, ulcer and inflammation) and colon ulcer area (in words): set treatment regimen; for Effect on disease progression of ulcerative colitis / DAI scores (in words) / Effect on weight gain inhibition / weight loss response of model animals (in words) / Effect on colon atrophy process / colon weight/length ratio (in words) / Effect on gross colon injury status (colonic adhesion, ulcer and inflammation) and colon ulcer area (in words): vs model control group
Text: In this experiment, a rat model of ulcerative colitis was established by administering trinitrobenzene sulfonic acid (TNBS) to laboratory animal male SD rats for a single enema intervention. Acute colitis in rats induced by trinitrobenzene sulfonic acid (TNBS) is an immune response induced by cytokines secreted by Th1 type cells. […] This model is simple to establish and has good reproducibility. It is an experimental animal model widely used in evaluating drugs for the treatment of inflammatory bowel disease. […] During the experimental treatment period (D1-D14), the body weight and general clinical observation indicators (including but not limited to food intake, water intake, activity level and defecation, etc.) of the animals in each experimental group were dynamically collected. At the same time, based on the relevant scoring standards for the disease activity index of ulcerative colitis, the reactivity such as the weight loss degree, stool morphology and trait, and bloody stool of the animals in each experimental group after TNBS induction were scored, and the disease activity index (DAI) of ulcerative colitis was calculated, once a day for 14 consecutive days. At the end point of the experiment, colon tissues of animals in each experimental group were collected, and the length and weight of the colon were measured and then the non-autopsy images were collected. Then the colon was cut open along the intestinal wall longitudinally and autopsy images were collected. Based on the “Criteria for Scoring Gross Morphological Manifestations of the Colon”, the gross damage with respect to colon adhesions, colon ulcers and inflammation of animals in each experimental group was observed and scored. Ulcer images were collected under a stereomicroscope and the area of colon ulcer foci was calculated, followed by routine fixation.

[3] = high dose group (compound 1: 6.0 mg/kg; compound 6: 2.8 mg/kg)
[4] = low dose group (compound 1: 3.0 mg/kg; compound 6: 1.4 mg/kg)

Row | Substance | Intestinal lumen area (pixels, mean ± SE) ([1]; 250 μg/mL in water) [pixels] | Intestinal lumen area (pixels, mean ± SE) ([1]; 500 μg/mL in water) [pixels] | Intestinal lumen area (pixels, mean ± SE) ([1]; 1000 μg/mL in water) [pixels] | Activity in relieving intestinal lumen dilatation [1] | Intestinal lumen area compared with the model control group (in words) [1] | Body weight, Grouping day (D 0, g) [2, 3] [g] | Body weight, Grouping day (D 0, g) [2, 4] [g] | DAI score AUC(0-14 d) (D 0-D 14) [2, 3] | Weight change range (D 0-D 14, %) [2, 3] [%] | DAI score AUC(0-14 d) (D 0-D 14) [2, 4] | Weight change range (D 0-D 14, %) [2, 4] [%] | DAI score, Experimental day 1 (D 1, point) [2, 3] [point] | DAI score, Experimental day 1 (D 1, point) [2, 4] [point] | DAI score, Experimental day 3 (D 3, point) [2, 3] [point] | DAI score, Experimental day 3 (D 3, point) [2, 4] [point] | Body weight, Experimental day 5 (D 5, g) [2, 3] [g] | Body weight, Experimental day 5 (D 5, g) [2, 4] [g] | Body weight, Experimental endpoint (D 14, g) [2, 3] [g] | DAI score, Experimental endpoint (D 14, point) [2, 3] [point] | Body weight, Experimental endpoint (D 14, g) [2, 4] [g] | other results
1 | EPVPQAK [Compound 6] | 53093 ± 3839 | 45831 ± 3894 | 28429 ± 3711 | ** (** p < 0.01) | significant statistical differences compared with the model control group | 275.55 ± 7.92 | 276.61 ± 9.81 | 39.55 ± 3.99^####++++ | 1.50 ± 10.78 | 49.65 ± 3.95 | 0.48 ± 9.87 | 4.2 ± 0.8 | 3.9 ± 0.9 | 4.8 ± 1.0 | 5.0 ± 1.7 | 246.74 ± 22.76 | 243.72 ± 22.18 | 279.67 ± 30.93 | 0.7 ± 1.2 | 277.96 ± 29.18 | DAI score, Experimental endpoint (D 14, point) [2, 4]: 1.3 ± 1.2 point; Colon length (cm) [2, 3]: 13.89 ± 1.60 cm; Colon ulcer and inflammation score (point) [2, 3]: 2.50 ± 1.43 point; Colon ulcer area (cm^2) [2, 3]: 3.66 ± 2.36^# cm^2; Colon weight [2, 3]: 2.41 ± 0.63 g; Colon weight/length ratio (100* g/cm) [2, 3]: 17.70 ± 5.71# 100* g/cm; Colonic adhesion score (point) [2, 3]: 1.30 ± 0.82 point; Colon length (cm) [2, 4]: 13.37 ± 1.40 cm; Colon ulcer and inflammation score (point) [2, 4]: 3.00 ± 0.94 point; Colon ulcer area (cm^2) [2, 4]: 3.46 ± 2.06^## cm^2; Colon weight [2, 4]: 2.23 ± 0.39 g; Colon weight/length ratio (100* g/cm) [2, 4]: 16.93 ± 3.87^## 100* g/cm; Colonic adhesion score (point) [2, 4]: 1.70 ± 0.67 point; Overall therapeutic effect in the rat model of ulcerative colitis (in words) [2]: significant therapeutic effects; Effect on disease progression of ulcerative colitis / DAI scores (in words) [2]: significant improvement effect on the disease progression of ulcerative colitis; Effect on weight gain inhibition / weight loss response of model animals (in words) [2]: no obvious improved therapeutic effect; also recorded: did not show a significant weight improvement effect; Effect on colon atrophy process / colon weight/length ratio (in words) [2]: colon weight/length ratio was significantly decreased; Effect on gross colon injury status (colonic adhesion, ulcer and inflammation) and colon ulcer area (in words) [2]: obvious therapeutic effects; also recorded: significant therapeutic effects on the gross damage manifestation of the colon
2 | H-KEPVPQAKPRKVAAQ-OH [Compound 1] | 39333 ± 2095 | 26497 ± 1245 | 26174 ± 1898 | *** (*** p < 0.001) | significant statistical differences compared with the model control group | 279.99 ± 10.57 | 274.40 ± 9.10 | 30.65 ± 2.93^####+++ | 6.97 ± 4.73 | 37.65 ± 3.60 | 7.96 ± 7.32 | 3.9 ± 0.6 | 3.5 ± 1.3 | 4.3 ± 1.8 | 4.9 ± 1.6 | 263.90 ± 15.38 | 251.65 ± 18.30 | 299.37 ± 14.64 | 0.1 ± 0.3 | 296.07 ± 19.58 | DAI score, Experimental endpoint (D 14, point) [2, 4]: 0.5 ± 0.7 point; Colon length (cm) [2, 3]: 16.55 ± 1.67 cm; Colon ulcer and inflammation score (point) [2, 3]: 1.40 ± 0.84^####++ point; Colon ulcer area (cm^2) [2, 3]: 2.15 ± 0.74^###+ cm^2; Colon weight [2, 3]: 2.20 ± 0.28 g; Colon weight/length ratio (100* g/cm) [2, 3]: 13.37 ± 1.93^####+ 100* g/cm; Colonic adhesion score (point) [2, 3]: 0.60 ± 0.52 point; Colon length (cm) [2, 4]: 15.34 ± 1.99 cm; Colon ulcer and inflammation score (point) [2, 4]: 2.50 ± 0.85 point; Colon ulcer area (cm^2) [2, 4]: 3.77 ± 1.91^# cm^2; Colon weight [2, 4]: 2.48 ± 0.46 g; Colon weight/length ratio (100* g/cm) [2, 4]: 16.40 ± 3.29^### 100* g/cm; Colonic adhesion score (point) [2, 4]: 1.10 ± 0.57 point; Overall therapeutic effect in the rat model of ulcerative colitis (in words) [2]: significant therapeutic effects; Effect on disease progression of ulcerative colitis / DAI scores (in words) [2]: significant improvement effect on the disease progression of ulcerative colitis; Effect on weight gain inhibition / weight loss response of model animals (in words) [2]: significant effect of improving the weight gain inhibition; also recorded: significant improvement effect on the weight loss response; Effect on colon atrophy process / colon weight/length ratio (in words) [2]: colon weight/length ratio was significantly decreased; Effect on gross colon injury status (colonic adhesion, ulcer and inflammation) and colon ulcer area (in words) [2]: obvious therapeutic effects; also recorded: significant therapeutic effects on the gross damage manifestation of the colon
